Measured values from PubChem BioAssay AID328 (DTP/NCI, 2004).
Several values for one entry are separate records, joined by “and”; a condition that tells them apart may be missing. Equal entries are not always repeated. Toxic doses and inconclusive results are not listed.

System: BDF1 mice, P388 leukemia ip, median survival T/C
Assay: NCI In Vivo Anticancer Drug Screen. Data for tumor model P388 Leukemia (intraperitoneal) in B6D2F1 (BDF1) mice
Settings: endpoint: median survival time, higher = longer survival
Protocol: The antitumor activity of compounds was measured in mice bearing transplantable tumors. Survival or tumor size were measured and the results are expressed as the measurement made in the treated group (T) divided by the measurement made in the vehicle treated control group (C). The tumor model used in this assay is P388 Leukemia (intraperitoneal) in B6D2F1 (BDF1) mice

[1] = dose: 25.0 mg/kg/injection, schedule: Q01DX009 (ip), vehicle: saline with Tween-80
[2] = dose: 50.0 mg/kg/injection, schedule: Q01DX009 (ip), vehicle: saline with Tween-80
[3] = dose: 100.0 mg/kg/injection, schedule: Q01DX009 (ip), vehicle: saline with Tween-80
[4] = dose: 100.0 mg/kg/injection, schedule: Q04DX003 (ip), vehicle: Klucel (hydroxypropylcellulose) (HPC)
[5] = dose: 200.0 mg/kg/injection, schedule: Q04DX003 (ip), vehicle: Klucel (hydroxypropylcellulose) (HPC)
[6] = dose: 400.0 mg/kg/injection, schedule: Q04DX003 (ip), vehicle: Klucel (hydroxypropylcellulose) (HPC)
[7] = dose: 100.0 mg/kg/injection, schedule: Q04DX003 (ip), vehicle: saline with Tween-80
[8] = dose: 50.0 mg/kg/injection, schedule: Q01DX009 (ip), vehicle: saline
[9] = dose: 200.0 mg/kg/injection, schedule: Q01DX009 (ip), vehicle: saline with Tween-80
[10] = dose: 100.0 mg/kg/injection, schedule: Q01DX001 (ip), vehicle: saline with Tween-80
[11] = dose: 400.0 mg/kg/injection, schedule: Q01DX009 (ip), vehicle: saline with Tween-80
[12] = dose: 200.0 mg/kg/injection, schedule: Q01DX009 (ip), vehicle: Klucel (hydroxypropylcellulose) (HPC)
[13] = dose: 200.0 mg/kg/injection, schedule: Q04DX003 (ip), vehicle: saline with Tween-80
[14] = dose: 400.0 mg/kg/injection, schedule: Q04DX003 (ip), vehicle: saline with Tween-80
[15] = dose: 100.0 mg/kg/injection, schedule: Q01DX009 (ip), vehicle: Klucel (hydroxypropylcellulose) (HPC)
[16] = dose: 200.0 mg/kg/injection, schedule: Q01DX001 (ip), vehicle: saline with Tween-80

Cc1cc(Cc2cc(C)c(C)c(C)c2C)c(C)c(C)c1C
T/C (dose: 12.5 mg/kg/injection, schedule: Q01DX009 (ip), vehicle: saline with Tween-80): 93 % of control | T/C [1]: 100 % of control | T/C [2]: 98 % of control | T/C [3]: 97 % of control

C=C(C)Cc1cnc(SCc2ccccc2)[nH]c1=O
T/C [4]: 104 % of control | T/C [5]: 109 % of control | T/C [6]: 113 % of control

ClCCOC(OCCCl)OCCCl
T/C [1]: 113 % of control | T/C [2]: 109 % of control | T/C [7]: 95 % of control

N#CC1c2ccccc2C=NN1C(=O)N(c1ccccc1)c1ccccc1 (configuration not stated)
T/C (dose: 100.0 mg/kg/injection, schedule: Q04DX003 (ip), vehicle: other): 90 % of control | T/C (dose: 200.0 mg/kg/injection, schedule: Q04DX003 (ip), vehicle: other): 100 % of control | T/C (dose: 400.0 mg/kg/injection, schedule: Q04DX003 (ip), vehicle: other): 100 % of control

CCCCCCCNC(C)(C)C(SS)c1ccc(Cl)cc1 (configuration not stated)
T/C (dose: 100.0 mg/kg/injection, schedule: Q04DX003 (sc), vehicle: olive oil, sesame oil, peanut oil): 100 % of control | T/C (dose: 200.0 mg/kg/injection, schedule: Q04DX003 (sc), vehicle: olive oil, sesame oil, peanut oil): 109 % of control | T/C (dose: 400.0 mg/kg/injection, schedule: Q04DX003 (sc), vehicle: olive oil, sesame oil, peanut oil): 100 % of control

OCC1C2CCC(C2)C1CO (configuration not stated)
T/C (dose: 12.5 mg/kg/injection, schedule: Q01DX009 (ip), vehicle: saline): 105 % of control | T/C (dose: 25.0 mg/kg/injection, schedule: Q01DX009 (ip), vehicle: saline): 110 % of control | T/C [8]: 115 % of control | T/C (dose: 75.0 mg/kg/injection, schedule: Q01DX009 (ip), vehicle: saline): 115 % of control | T/C (dose: 115.0 mg/kg/injection, schedule: Q01DX009 (ip), vehicle: saline): 95 % of control

CN(C)P(Cl)(Cc1ccccc1)(c1ccccc1)c1ccccc1
T/C (dose: 3.0 mg/kg/injection, schedule: Q01DX009 (ip), vehicle: saline): 108 % of control | T/C (dose: 3.0 mg/kg/injection, schedule: Q04DX003 (ip), vehicle: saline): 110 % of control | T/C (dose: 6.0 mg/kg/injection, schedule: Q01DX009 (ip), vehicle: saline): 116 % of control and 122 % of control | T/C (dose: 6.0 mg/kg/injection, schedule: Q04DX003 (ip), vehicle: saline): 105 % of control | T/C (dose: 12.0 mg/kg/injection, schedule: Q04DX003 (ip), vehicle: saline): 110 % of control

CCCCCCC(NC(C)=O)C(C)=O (configuration not stated)
T/C [2]: 104 % of control | T/C [3]: 101 % of control | T/C [9]: 101 % of control

Cc1nc[nH]c(=O)c1N
T/C [8]: 102 % of control | T/C (dose: 100.0 mg/kg/injection, schedule: Q01DX009 (ip), vehicle: saline): 102 % of control | T/C (dose: 200.0 mg/kg/injection, schedule: Q01DX009 (ip), vehicle: saline): 102 % of control

COC1=C(OC)C(=O)C2=C(OCCO2)C1=O
T/C [10]: 104 % of control

COc1ccc(C(=O)/C=N/O)cc1
T/C [1]: 86 % of control | T/C [2]: 100 % of control | T/C [3]: 90 % of control

CCCC[N+](CCCC)=c1cc(-c2ccc(Cl)cc2)ss1
T/C (dose: 3.12 mg/kg/injection, schedule: Q01DX009 (ip), vehicle: water): 100 % of control and 114 % of control | T/C (dose: 6.25 mg/kg/injection, schedule: Q01DX009 (ip), vehicle: water): 91 % of control and 120 % of control | T/C (dose: 12.5 mg/kg/injection, schedule: Q01DX009 (ip), vehicle: water): 98 % of control and 104 % of control | T/C (dose: 25.0 mg/kg/injection, schedule: Q01DX009 (ip), vehicle: water): 100 % of control and 106 % of control | T/C (dose: 50.0 mg/kg/injection, schedule: Q04DX003 (ip), vehicle: water): 102 % of control | T/C (dose: 100.0 mg/kg/injection, schedule: Q04DX003 (ip), vehicle: water): 93 % of control

COc1ccc(-c2c(CC(=O)O)c3cc(OC)ccc3n2Cc2ccc(Cl)cc2)cc1
T/C [3]: 90 % of control | T/C [9]: 113 % of control | T/C [11]: 90 % of control

COc1c(C(C)(C)C)cc([N+](=O)[O-])c(C)c1[N+](=O)[O-]
T/C [4]: 100 % of control | T/C [5]: 100 % of control | T/C [6]: 95 % of control

CC(C)c1ccccc1OS(=O)(=O)c1c(F)c(F)c(F)c(F)c1F
T/C (dose: 6.25 mg/kg/injection, schedule: Q01DX001 (ip), vehicle: saline with Tween-80): 104 % of control | T/C (dose: 12.5 mg/kg/injection, schedule: Q01DX001 (ip), vehicle: saline with Tween-80): 109 % of control | T/C (dose: 25.0 mg/kg/injection, schedule: Q01DX001 (ip), vehicle: saline with Tween-80): 118 % of control

ClC1(c2ccccc2)c2ccc(Br)cc2-c2cc(Br)ccc21
T/C (dose: 66.0 mg/kg/injection, schedule: Q01DX009 (ip), vehicle: saline with Tween-80): 100 % of control | T/C [3]: 121 % of control | T/C [12]: 88 % of control

COc1ccc(Br)cc1/C=N/N=C/c1cc(Br)ccc1OC
T/C [3]: 95 % of control | T/C [9]: 95 % of control | T/C [11]: 95 % of control

COC1OC(COC(=O)c2ccccc2)C(OC(=O)c2ccccc2)C(OC(=O)c2ccccc2)C1OC(=O)c1ccccc1 (configuration not stated)
T/C [7]: 91 % of control | T/C [13]: 91 % of control | T/C [14]: 91 % of control

O=Cc1ccccc1B(O)O
T/C (dose: 50.0 mg/kg/injection, schedule: Q01DX009 (ip), vehicle: Klucel (hydroxypropylcellulose) (HPC)): 108 % of control and 109 % of control | T/C (dose: 50.0 mg/kg/injection, schedule: Q04DX003 (ip), vehicle: Klucel (hydroxypropylcellulose) (HPC)): 92 % of control | T/C [15]: 108 % of control and 118 % of control | T/C [4]: 100 % of control | T/C [5]: 107 % of control

NOCc1ccc(CON)cc1
T/C (dose: 50.0 mg/kg/injection, schedule: Q04DX003 (ip), vehicle: saline): 87 % of control | T/C (dose: 100.0 mg/kg/injection, schedule: Q04DX003 (ip), vehicle: saline): 91 % of control | T/C (dose: 200.0 mg/kg/injection, schedule: Q04DX003 (ip), vehicle: saline): 95 % of control

COc1cc(/C=N\NC(=O)c2cccc(Cl)c2)ccc1N(CCCl)CCCl
T/C (dose: 264.0 mg/kg/injection, schedule: Q04DX003 (ip), vehicle: saline with Tween-80): 173 % of control | T/C [14]: 234 % of control | T/C (dose: 600.0 mg/kg/injection, schedule: Q04DX003 (ip), vehicle: saline with Tween-80): 260 % of control

CCC1(c2ccccc2)NC(=O)N(C)C1=O (configuration not stated)
T/C [15]: 100 % of control | T/C [4]: 104 % of control | T/C [12]: 100 % of control | T/C [5]: 95 % of control | T/C [6]: 95 % of control

CCC[CH2][Sn]1([CH2]CCC)[O]OC2(CCCCC2)[O]1
T/C (dose: 1.25 mg/kg/injection, schedule: Q01DX009 (ip), vehicle: Klucel (hydroxypropylcellulose) (HPC)): 115 % of control | T/C (dose: 1.57 mg/kg/injection, schedule: Q04DX003 (ip), vehicle: saline sonified): 122 % of control | T/C (dose: 3.13 mg/kg/injection, schedule: Q04DX003 (ip), vehicle: saline sonified): 116 % of control | T/C (dose: 5.0 mg/kg/injection, schedule: Q01DX009 (ip), vehicle: Klucel (hydroxypropylcellulose) (HPC)): 115 % of control

S=c1[nH]nc2n1NC(c1ccoc1)=NN2
T/C (dose: 25.0 mg/kg/injection, schedule: Q04DX003 (ip), vehicle: saline with Tween-80): 122 % of control | T/C (dose: 50.0 mg/kg/injection, schedule: Q04DX003 (ip), vehicle: saline with Tween-80): 100 % of control | T/C [7]: 113 % of control

N#CCCCn1nnc(-c2ccccc2)n1
T/C [2]: 100 % of control | T/C [3]: 108 % of control

O=C1Nc2ccccc2C12Nc1cccnc1N2 (configuration not stated)
T/C (dose: 50.0 mg/kg/injection, schedule: Q01DX001 (ip), vehicle: saline with Tween-80): 91 % of control | T/C [10]: 87 % of control | T/C [16]: 91 % of control

COC(=O)C(CC(O)c1ccccc1)N1CCOCC1 (configuration not stated)
T/C [10]: 100 % of control | T/C [16]: 100 % of control | T/C (dose: 400.0 mg/kg/injection, schedule: Q01DX001 (ip), vehicle: saline with Tween-80): 100 % of control

COC1(C(C)(C)C)C=C(C)/C(=C2\C(=O)Oc3c2cc(C)cc3C(C)(C)C)O1 (configuration not stated)
T/C [2]: 99 % of control | T/C [3]: 92 % of control | T/C [9]: 96 % of control

CN(C)c1ccc(C=Nc2c(N)n(C)c(=O)n(C)c2=O)cc1
T/C [7]: 101 % of control | T/C [13]: 92 % of control | T/C [14]: 93 % of control
